Data from ChEMBL document CHEMBL6127136, “Discovery of 1-(Phenylsulfonyl)-1,2,3,4-tetrahydroquinoline Derivative as Orally Bioavailable and Safe RORγt Inverse Agonists for Potential Treatment of Rheumatoid Arthritis” (J Med Chem, 2024).
Calls of active or inactive are those of the source. The calls are words filed in the database; no cut-off is given here.

How the values were obtained:
[1] = Oral bioavailability in male DBA/1 mouse at 20 mg/kg measured after 24 hrs by HPLC analysis; assay type: ADME, organism-based; settings: in vivo
[2] = AUC (0 to t) in male DBA/1 mouse at 5 mg/kg, iv measured after 24 hrs by HPLC analysis; assay type: ADME, organism-based; settings: in vivo
[3] = test system: Mus musculus; experiment: (§1) Antiinflammatory activity against imiquimod-induced psoriasis-like skin inflammation in Balb/c mouse model assessed as reduction in inflammatory cell infiltration in skin at 15 mg/kg, IG preadministered with IMQ for 3 days followed by compound administration from day 4 and measured on day 14 by H and E staining based analysis; assay type: functional, organism-based; settings: time 11.0 day
[4] = test system: Mus musculus; experiment: Antiinflammatory activity against imiquimod-induced psoriasis-like skin inflammation in Balb/c mouse model assessed as reduction in IL-17F level in peripheral blood preadministered with IMQ for 3 days followed by intragastric compound administration from day 4 and measured on day 13 by ELISA; assay type: functional, organism-based; settings: dose 5-15 mg/kg, route ig, time 10.0 day
[5] = test system: Mus musculus; experiment: (§2) Antiinflammatory activity against imiquimod-induced psoriasis-like skin inflammation in Balb/c mouse model assessed as reduction in total psoriasis area preadministered with IMQ for 3 days followed by intragastric compound administration from day 4 and measured on day 14; assay type: functional, organism-based; settings: dose 10-15 mg/kg, route ig, time 11.0 day
[6] = test system: Mus musculus; experiment: Antiinflammatory activity against imiquimod-induced psoriasis-like skin inflammation in Balb/c mouse model assessed as reduction in total psoriasis severity index preadministered with IMQ for 3 days followed by intragastric compound administration from day 4 and measured on day 14; assay type: functional, organism-based; settings: dose 10-15 mg/kg, route ig, time 11.0 day
[7] = AUC (0 to infinity) in male DBA/1 mouse at 20 mg/kg, po measured after 24 hrs by HPLC analysis; assay type: ADME, organism-based; settings: in vivo
[8] = test system: Mus musculus; experiment: as §1, with “decrease” for “reduction”, “IL-23 expression” for “inflammatory cell infiltration”, “immunohistochemical” for “H and E staining based”; assay type: functional, organism-based; settings: time 11.0 day
[9] = test system: Mus musculus; experiment: as §2, with “decrease” for “reduction”, “IL-23 expression in skin” for “total psoriasis area”, “14 by immunohistochemical analysis” for “14”; assay type: functional, organism-based; settings: dose 5-15 mg/kg, route ig, time 11.0 day
[10] = test system: Mus musculus; experiment: as §1, with “decrease” for “reduction”, “dermal telangiectasia” for “inflammatory cell infiltration in skin”; assay type: functional, organism-based; settings: time 11.0 day
[11] = test system: Mus musculus; experiment: as §2, with “decrease” for “reduction”, “IL-17A expression in skin” for “total psoriasis area”, “14 by immunohistochemical analysis” for “14”; assay type: functional, organism-based; settings: dose 5-15 mg/kg, route ig, time 11.0 day
[12] = molecular target: T1, Nuclear receptor ROR-gamma (Homo sapiens, UniProt P51449); experiment: Inverse agonist activity at N-terminal 6-His-tagged/APC-labeled human RORgammat LBD extracted from Escherichia coli assessed as inhibition of europium-labeled SRC-1 recruitment incubated for 3 hrs by TR-FRET analysis
T1 sequence (P51449 whole entry): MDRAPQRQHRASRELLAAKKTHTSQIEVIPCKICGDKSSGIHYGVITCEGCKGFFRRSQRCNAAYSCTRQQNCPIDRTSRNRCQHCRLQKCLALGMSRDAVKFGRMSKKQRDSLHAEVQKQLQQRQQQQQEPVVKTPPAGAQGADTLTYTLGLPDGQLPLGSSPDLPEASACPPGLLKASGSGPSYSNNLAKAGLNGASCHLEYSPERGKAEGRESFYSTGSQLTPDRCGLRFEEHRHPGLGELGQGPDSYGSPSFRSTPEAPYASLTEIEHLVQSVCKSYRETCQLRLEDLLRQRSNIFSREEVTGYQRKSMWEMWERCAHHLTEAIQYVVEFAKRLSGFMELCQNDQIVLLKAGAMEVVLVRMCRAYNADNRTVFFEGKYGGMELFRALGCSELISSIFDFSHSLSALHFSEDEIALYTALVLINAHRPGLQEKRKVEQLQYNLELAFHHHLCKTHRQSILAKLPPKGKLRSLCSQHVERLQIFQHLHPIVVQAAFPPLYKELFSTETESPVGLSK

[13] = Cmax in male DBA/1 mouse at 20 mg/kg, po measured after 24 hrs by HPLC analysis; assay type: ADME, organism-based; settings: in vivo
[14] = molecular target: T1, Nuclear receptor ROR-gamma; experiment: Inverse agonist activity at GAL4 DNA-binding domain fused RORgamma (unknown origin) transfected in HEK293T cells co-transfected with GAL4-promoter driven luciferase reporter gene assessed as inhibition of RORgammat transcription incubated for 18 to 20 hrs by plate reader analysis; assay type: cell-based
[15] = test system: Mus musculus; experiment: as §2, with “decrease” for “reduction”, “IL-17F expression in skin” for “total psoriasis area”, “14 by immunohistochemical analysis” for “14”; assay type: functional, organism-based; settings: dose 5-15 mg/kg, route ig, time 11.0 day
[16] = Toxicity in imiquimod-induced psoriasis-like skin inflammation Balb/c mouse model assessed as change in body weight at 5 to 15 mg/kg, IG preadministered with IMQ for 3 days followed by compound administration from day 4 and measured on day 14; assay type: organism-based; settings: in vivo, po, 264 h, dose 5-15 mg/kg, time 11 day
[17] = AUC (0 to t) in male DBA/1 mouse at 20 mg/kg, po measured after 24 hrs by HPLC analysis; assay type: ADME, organism-based; settings: in vivo
[18] = test system: HeLa; experiment: Antiproliferative activity against human HeLa cells assessed as inhibition of colony formation at 2 to 8 uM incubated for 7 days by crystal violet staining based light microscopic analysis; assay type: toxicity, cell-based; settings: 168 h, dose 2-8 µM, time 7 day
[19] = test system: Mus musculus; experiment: Antiinflammatory activity against imiquimod-induced psoriasis-like skin inflammation in Balb/c mouse model assessed as reduction in IL-17A level in peripheral blood preadministered with IMQ for 3 days followed by intragastric compound administration from day 4 and measured on day 13 by ELISA; assay type: functional, organism-based; settings: dose 5-15 mg/kg, route ig, time 10.0 day
[20] = Half-life in male DBA/1 mouse at 20 mg/kg, po measured after 24 hrs by HPLC analysis; assay type: ADME, organism-based; settings: in vivo
[21] = test system: Mus musculus; experiment: as §1, with “in mononuclear” for “in inflammatory”; assay type: functional, organism-based; settings: time 11.0 day
[22] = Tmax in male DBA/1 mouse at 20 mg/kg, po measured after 24 hrs by HPLC analysis; assay type: ADME, organism-based; settings: in vivo
[23] = Cmax in male DBA/1 mouse at 5 mg/kg, iv measured after 24 hrs by HPLC analysis; assay type: ADME, organism-based; settings: in vivo
[24] = test system: Mus musculus; experiment: Antiinflammatory activity against imiquimod-induced psoriasis-like skin inflammation in Balb/c mouse model assessed as reduction in IL-23 level in peripheral blood preadministered with IMQ for 3 days followed by intragastric compound administration from day 4 and measured on day 13 by ELISA; assay type: functional, organism-based; settings: dose 5-15 mg/kg, route ig, time 10.0 day
[25] = Clearance in male DBA/1 mouse at 5 mg/kg, iv measured after 24 hrs by HPLC analysis; assay type: ADME, organism-based; settings: in vivo
[26] = Half-life in male DBA/1 mouse at 5 mg/kg, iv measured after 24 hrs by HPLC analysis; assay type: ADME, organism-based; settings: in vivo
[27] = test system: HUVEC; experiment: Antiproliferative activity against HUVEC cells assessed as inhibition of colony formation at 2 to 8 uM incubated for 7 days by crystal violet staining based light microscopic analysis; assay type: toxicity, cell-based; settings: human, 168 h, dose 2-8 µM, time 7 day
[28] = test system: Mus musculus; experiment: as §1, with “decrease” for “reduction”, “IL-17A expression” for “inflammatory cell infiltration”, “immunohistochemical” for “H and E staining based”; assay type: functional, organism-based; settings: time 11.0 day
[29] = AUC (0 to infinity) in male DBA/1 mouse at 5 mg/kg, iv measured after 24 hrs by HPLC analysis; assay type: ADME, organism-based; settings: in vivo
[30] = test system: Mus musculus; experiment: as §1, with “decrease” for “reduction”, “IL-17F expression” for “inflammatory cell infiltration”, “immunohistochemical” for “H and E staining based”; assay type: functional, organism-based; settings: time 11.0 day
[31] = test system: Mus musculus; experiment: Antiinflammatory activity against imiquimod-induced psoriasis-like skin inflammation in Balb/c mouse model assessed as attenuation of skin layer thickening at 15 mg/kg, IG preadministered with IMQ for 3 days followed by compound administration from day 4 and measured on day 14 by H and E staining based analysis; assay type: functional, organism-based; settings: time 11.0 day
[32] = Tmax in male DBA/1 mouse at 5 mg/kg, iv measured after 24 hrs by HPLC analysis; assay type: ADME, organism-based; settings: in vivo

CCC1CCc2cc(C(C)C)ccc2N1S(=O)(=O)c1ccc(OCC2CCOCC2)c(CO)c1 (racemic)
bioavailability [1]: 48.1% | AUC(0-t) at 24 h [2]: 995 ng·h/mL | Activity [3]: Active | Activity [4]: Dose-Dependent Effect | Activity [5]: Dose-Dependent Effect | Activity [6]: Dose-Dependent Effect | AUC(0-inf) [7]: 1960 ng·h/mL | Activity [8]: Active | Activity [9]: Dose-Dependent Effect | Activity [10]: Active | Activity [11]: Dose-Dependent Effect | IC50 [12]: 3.5 nM | Cmax [13]: 485 ng/mL | IC50 [14]: 21 nM | Activity [15]: Dose-Dependent Effect | Activity [16]: Non-Toxic | AUC(0-t) at 24 h [17]: 1890 ng·h/mL | Activity [18]: Non-Toxic | Activity [19]: Dose-Dependent Effect | half-life [20]: 4.67 h | Activity [21]: Active | Tmax [22]: 0.5 h | Cmax [23]: 1210 ng/mL | Activity [24]: Dose-Dependent Effect | clearance [25]: 81.9 mL/min/kg | half-life [26]: 3.87 h | Activity [27]: Non-Toxic | Activity [28]: Active | AUC(0-inf) [29]: 1020 ng·h/mL | Activity [30]: Active | Activity [31]: Active | Tmax [32]: 4.98 min
